Reference: patent publication US6497862B2, “Composition for inhibiting body odor and uses thereof” (Kabushiki Kaisha Hayashibara, priority 2000, dated 2002)

How the values were obtained:
[1] = Panel test of body-odor-like smell (KAREI-SHU), 9-hexadecanoic acid heated (Experiment 3); set-up: key: +++: the same or higher level of odor; ++: slightly lower level of odor; +: clearly lower level of odor than the control system; details: compared with control system
Source text: (§1) Upon the HSG samples, the level of a body-odor-like smell was examined on a panel test consisting of six professional panels; the panels directly smelled the samples from each glass vial and judged the level of the smells for each samples with test saccharides based on the following four ranks, i.e., the same or higher level of odor (+++), slightly lower level of odor (++), clearly lower level of odor (+), and odorless (−) as compared with the control system. Summing up the data from the panels, the samples tested were totally evaluated.
The content of 2-nonenal in HSG was measured by GC similarly as in Experiment 1 except that 9-hexadecanoic acid or palmitoleic acid was used as a fatty acid and 2-nonenal, a volatile aldehyde, was used as a standard substance. The level of body-odor-like smell, particularly with respect to KAREI-SHU, in each sample was evaluated by panel test in accordance with the method in Experiment 1.

[2] = Panel test of smell, 9-hexadecanoic acid at 37° C. (Experiment 6); set-up: key: +++: the same or higher level of odor; ++: slightly lower level of odor; +: clearly lower level of odor than that of the control system; −: odorless; details: 3-days of standing, 37° C., 9,000 lux
Source text: as §1
One hundred milligrams of 9-hexadecanoic acid as a fatty acid, 500 mg of a cellulose powder, and 1.25 ml of 0.12 M phosphate buffer (pH 6.0) were placed in a 20-ml glass vial. To the glass vial was added 100 mg of either of trehalose, maltitol and sucrose as a test saccharide, followed by sealing with a butyl rubber cap for use as a test system. As a control system, there provided a glass vial with no test saccharide that differed from the test systems only in this point. In both the test- and control-systems, they were respectively provided in doublet.
These glass vials were allowed to stand in a 37° C.-thermostatic-bath under the irradiation of 9,000 lux by a fluorescent lamp. […] After the collection of HSG, the smell from glass vials was evaluated by panel test in accordance with the method in Experiment 2.

healthy volunteer = assay: Test on volunteer: volatile aldehydes collected from worn underwear (Experiment 7); assay type: in vivo, human
Description: The influence of saccharides on the formation of body odor from living bodies by applying trehalose to a healthy volunteer, under the following schedule: After soaking a towel in a 2% (w/w) aqueous trehalose solution, which had been boiled for five minutes and then cooled to about 40° C., at 10:30 a.m. on the day of starting a test, the volunteer as in a test system was allowed to wipe their whole body with the towel squeezed roughly to apply trehalose on the body surface, and made them to spend their daily life as usual after the drying of the applied aqueous trehalose solution. Thereafter, they were made to take a bath at 9 p.m. as usual and allowed to sufficiently wash their whole body including their hair. Just after bathing, a fresh preparation of aqueous trehalose solution was applied on the body surface similarly as above, then after drying the aqueous trehalose solution, they were made to wear an underwear and allowed to spend their daily life. At 5:30 p.m. on the next day after the initiation of the test, their worn underwear was collected, and tested for the presence and the content of volatile aldehydes in the underwear by the following procedures. As a control, on other day, the volunteer was allowed to wear a similar underwear as used in the test system according to the above test system except for replacing the aqueous trehalose solution with water, and then made them to spend their daily life, followed by collecting their underwear and analyzing them by the following procedures similarly as above.
As shown schematically in FIG. 1, an underwear 5 worn by the volunteer in each system was sealed after placed in a sealing vessel 1 immediately after the collection, and the gas in the sealing vessel 1 was pumped by an air pump 3 into a cartridge 4, “Superclean LpDNPH Cartridge”, with a lot No. LpDNPH S10L commercialized by Supelco Inc., Tokyo, Japan, to collect volatile aldehydes through a pipe 2 at ambient temperature of about 20° C., while the gas was continuously circulated through the sealed vessel 1 through the pipe 2 for one hour to collect in the cartridge 4 volatile aldehydes, as DNPH (dinitrophenylhydrazine), contained in the underwear 5. Thereafter, the cartridge 4 was removed and received two milliliters of acetonitrile by passing therethrough, followed by collecting an eluate from the cartridge 4. The collected eluate was analyzed on GC as follows.
“GAS CHROMATOGRAPH GC-14B”, as a GC apparatus produced by Shimadzu Corporation, Tokyo, Japan; and “TC-Wax CAPILLARY COLUMN”, a column for analysis, having 0.53 mm in inner diameter, 25 m in length, and 0.5 μm in thickness, produced by GL Sciences, Inc., Tokyo, Japan, were used. Helium gas was used as a carrier gas at a flow rate of 1 ml/min, and the temperature for a sample injection part was set to 240° C., while keeping a column thermostatic bath temperature at 50° C. for five minutes and then increasing the temperature up to 200° C. at a rate of 5° C./min. Using two microliters of an analysis sample as an injection volume, 1/30 volume of the injected sample was analyzed (split 1:30) by passing through the column for analysis while controlling the flow rate of the carrier gas at the sample injection part and using a hydrogen flame ionization detector for detection. As standard specimens, DNPH derivatives for each 2-nonenal, 2-octenal, hexanal, and nonanal were used and separately analyzed on GC under the conditions shown above. Based on the gas chromatograms from the above analyses, the content (μg) of respective 2-nonenal, 2-octenal. hexanal, and nonanal, collected form the underwears in the test system and control, was determined.

Compound	Evaluation of panel test [1]	Evaluation of panel test [2]	formation of body odor (healthy volunteer; experiment using maltitol in place of trehalose)	Content of volatile aldehydes collected from underwear, 2-Nonenal (healthy volunteer; 2% (w/w) aqueous trehalose solution applied on the body surface, control 7.05) [µg]	Content of volatile aldehydes collected from underwear, Hexanal (healthy volunteer; 2% (w/w) aqueous trehalose solution on the body surface, control 5.39, * means no detection)	Content of volatile aldehydes collected from underwear, 2-Octenal (healthy volunteer; 2% (w/w) aqueous trehalose solution on the body surface, control 8.61, * means no detection)	Content of volatile aldehydes collected from underwear, Nonanal (healthy volunteer; 2% (w/w) aqueous trehalose solution on the body surface, control 10.93, * means no detection)	2-nonenal in underwear, level relative to control (healthy volunteer; trehalose applied on the body surface versus water control)
OC[C@@H](O)[C@@H](O[C@H]1O[C@H](CO)[C@@H](O)[C@H](O)[C@H]1O)[C@H](O)[C@@H](O)CO [Maltitol, maltitol]	+	−	well inhibits the formation of body odor similarly as trehalose					
OC[C@H]1O[C@H](O[C@H]2O[C@H](CO)[C@@H](O)[C@H](O)[C@H]2O)[C@H](O)[C@@H](O)[C@@H]1O [Trehalose, trehalose]	+	−		3.72	undetectable level	undetectable level	undetectable level	about 53%
